Reference: ChEMBL document CHEMBL1131486, “Synthesis and pharmacological evaluation of ring-methylated derivatives of 3,4-(methylenedioxy)amphetamine (MDA)” (J Med Chem, 1998)
Active and inactive are the calls of the source. The calls are words filed in the database; no cut-off is given here.

Key:
[1] = target: T1, Norepinephrine transporter (Rattus norvegicus, UniProt Q9WTR4); assay: (§1) Compound was tested for the ability to inhibit [3H]norepinephrine binding to Norepinephrine transporter in rat synaptosomes; type: subcellular, Brain
Rattus norvegicus [2] = species on record: Rattus norvegicus; assay: Compound was tested for its ability to inhibit [3H]dopamine uptake in rat synaptosomes; type: functional; settings: Brain
Rattus norvegicus [3] = species on record: Rattus norvegicus; assay: Effective dose for drug discrimination assay in rats using (+)-Amphitamine as training drug; NS = No substitution; type: functional, organism-based
Rattus norvegicus [4] = species on record: Rattus norvegicus; assay: Effective dose for drug discrimination assay in rats using (+)-MBDB as training drug; type: functional
Rattus norvegicus [5] = species on record: Rattus norvegicus; assay: Effective dose for drug discrimination assay in rats using DOIas training drug.; type: functional
Rattus norvegicus [6] = species on record: Rattus norvegicus; assay: Effective dose for drug discrimination assay in rats using LSD as training drug.; type: functional
[7] = selectivity is the ratio between IC50 values of 5-HTand DA
Rattus norvegicus [8] = species on record: Rattus norvegicus; assay: Effective dose for drug discrimination assay in rats using MMAI as training drug.; type: functional
[9] = target: Sodium-dependent serotonin transporter (Rattus norvegicus, UniProt P31652); assay: Activity towards Serotonin transporter was determined by the ability to inhibit [3H]5-HT uptake in rat synaptosomes; type: subcellular, Brain
Rattus norvegicus [10] = species on record: Rattus norvegicus; assay: Effective dose for drug discrimination assay in rats using DOI as training drug.; type: functional
Rattus norvegicus [11] = species on record: Rattus norvegicus; assay: Effective dose for drug discrimination assay in rats using (+)-amphetamine as training drug; type: functional
[12] = target: T1, Norepinephrine transporter; assay: as §1; type: functional, subcellular, Brain
Rattus norvegicus [13] = species on record: Rattus norvegicus; assay: Effective dose for drug discrimination assay in rats using (+)-MBDB as training drug.; type: functional
Rattus norvegicus [14] = species on record: Rattus norvegicus; assay: Effective dose for drug discrimination assay in rats using LSD as training drug; type: functional

T1 sequence (Q9WTR4 whole entry): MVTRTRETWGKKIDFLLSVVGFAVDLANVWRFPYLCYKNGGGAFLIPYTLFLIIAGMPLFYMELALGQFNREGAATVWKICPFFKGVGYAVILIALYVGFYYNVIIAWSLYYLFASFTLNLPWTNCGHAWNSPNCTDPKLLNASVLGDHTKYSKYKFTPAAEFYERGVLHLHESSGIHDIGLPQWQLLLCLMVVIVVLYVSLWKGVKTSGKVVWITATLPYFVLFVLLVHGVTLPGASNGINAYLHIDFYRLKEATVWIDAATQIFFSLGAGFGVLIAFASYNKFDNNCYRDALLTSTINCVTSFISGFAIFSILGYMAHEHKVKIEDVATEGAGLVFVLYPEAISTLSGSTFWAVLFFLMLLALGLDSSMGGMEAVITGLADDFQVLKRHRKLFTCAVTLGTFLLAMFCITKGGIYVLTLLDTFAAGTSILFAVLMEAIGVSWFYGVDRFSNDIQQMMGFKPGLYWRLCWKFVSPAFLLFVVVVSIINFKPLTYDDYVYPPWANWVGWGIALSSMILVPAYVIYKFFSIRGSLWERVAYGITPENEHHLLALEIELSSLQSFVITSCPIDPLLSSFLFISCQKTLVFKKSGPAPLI
Sodium-dependent serotonin transporter, sequence (P31652 whole entry): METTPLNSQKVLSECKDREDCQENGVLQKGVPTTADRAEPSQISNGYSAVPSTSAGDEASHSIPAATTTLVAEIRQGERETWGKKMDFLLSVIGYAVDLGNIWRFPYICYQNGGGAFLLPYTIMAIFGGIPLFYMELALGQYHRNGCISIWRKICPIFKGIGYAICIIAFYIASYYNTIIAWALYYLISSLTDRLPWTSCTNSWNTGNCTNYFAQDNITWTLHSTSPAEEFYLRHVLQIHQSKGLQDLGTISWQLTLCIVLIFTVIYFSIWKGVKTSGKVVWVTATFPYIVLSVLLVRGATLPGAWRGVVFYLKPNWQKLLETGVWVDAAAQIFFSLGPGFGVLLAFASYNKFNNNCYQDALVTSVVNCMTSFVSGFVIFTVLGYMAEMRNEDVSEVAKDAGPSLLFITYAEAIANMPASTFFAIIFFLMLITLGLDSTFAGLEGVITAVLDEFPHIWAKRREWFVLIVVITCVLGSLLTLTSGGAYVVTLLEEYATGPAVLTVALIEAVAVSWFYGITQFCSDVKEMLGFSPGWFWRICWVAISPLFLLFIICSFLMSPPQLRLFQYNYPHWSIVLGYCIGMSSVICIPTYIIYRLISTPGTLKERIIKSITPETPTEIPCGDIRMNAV

Row | SMILES | IC50 [1] [nM] | IC50 (Rattus norvegicus [2]) [nM] | ED50 (Rattus norvegicus [3]) | Selectivity [7] | ED50 (Rattus norvegicus [8]) [µmol/kg] | IC50 [9] [nM] | other results
1 | Cc1cc2c(cc1CC(C)N)OCO2 (stereo not drawn) | 4600 | 28300 | inactive | 36 | 7.65 | 783 | ED50 (Rattus norvegicus [4]): 17.4 µmol/kg; ED50 (Rattus norvegicus [5]): 8.72 µmol/kg; ED50 (Rattus norvegicus [6]): 17.4 µmol/kg
2 | COc1cc(CC(C)N)c(OC)cc1I (stereo not drawn) | – | – | – | – | – | – | ED50 (Rattus norvegicus [10]): 0.3 µmol/kg
3 | C[C@H](N)Cc1ccccc1 [DEXTROAMPHETAMINE] | – | – | – | – | – | – | ED50 (Rattus norvegicus [11]): 1.06 µmol/kg
4 | Cc1c(CC(C)N)ccc2c1OCO2 (stereo not drawn) | – | 12000 | inactive | 129 | 1.71 | 93 | IC50 [12]: 1940 nM; ED50 (Rattus norvegicus [13]): 1.83 µmol/kg; ED50 (Rattus norvegicus [5]): 1.7 µmol/kg; ED50 (Rattus norvegicus [6]): 4.1 µmol/kg
5 | CC(N)Cc1ccc2c(c1)OCO2 (stereo not drawn) [TENAMFETAMINE] | 266 | 890 | inactive | 2 | – | 478 | ED50 (Rattus norvegicus [13]): 2.07 µmol/kg
6 | CSc1ccc(CC(C)N)cc1 (stereo not drawn) [4-METHYLTHIOAMPHETAMINE] | 2380 | 3070 | – | 42 | – | 74 | –
7 | CC(N)Cc1ccc2c(c1)CCC2 (stereo not drawn) | 849 | – | – | 23 | – | 82 | –
8 | COc1cc2c(cc1C)CC(N)C2 (stereo not drawn) | – | – | – | – | 1.83 | – | –
9 | CC(N)Cc1ccc(I)cc1 (stereo not drawn) [p-IODOAMPHETAMINE] | 993 | 589 | – | 7 | – | 82 | –
10 | Cc1cc(CC(C)N)cc2c1OCO2 (stereo not drawn) | 1490 | 11600 | inactive | 108 | 1.53 | 107 | ED50 (Rattus norvegicus [13]): 2 µmol/kg; ED50 (Rattus norvegicus [5]): 2.11 µmol/kg; ED50 (Rattus norvegicus [6]): 8.72 µmol/kg
11 | CCN(CC)C(=O)[C@@H]1C=C2c3cccc4[nH]cc(c34)C[C@H]2N(C)C1 [LYSERGIDE] | – | – | – | – | – | – | ED50 (Rattus norvegicus [14]): 0.04 µmol/kg
